Test results as given in ChEMBL document CHEMBL1135303, “Design and synthesis of aminophenol-based factor Xa inhibitors” (Bioorg Med Chem Lett, 2002).

Assays:
[1] = molecular target: T1, Prothrombin (Homo sapiens, UniProt P00734); assay: Competitive inhibition of coagulation factor IIa
[2] = molecular target: Coagulation factor X (Homo sapiens, UniProt P00742); assay: Competitive inhibition of coagulation factor Xa
[3] = molecular target: T2, Serine protease 1 (Bos taurus, UniProt P00760); assay: Competitive inhibition of trypsin
T2 sequence (P00760 whole entry): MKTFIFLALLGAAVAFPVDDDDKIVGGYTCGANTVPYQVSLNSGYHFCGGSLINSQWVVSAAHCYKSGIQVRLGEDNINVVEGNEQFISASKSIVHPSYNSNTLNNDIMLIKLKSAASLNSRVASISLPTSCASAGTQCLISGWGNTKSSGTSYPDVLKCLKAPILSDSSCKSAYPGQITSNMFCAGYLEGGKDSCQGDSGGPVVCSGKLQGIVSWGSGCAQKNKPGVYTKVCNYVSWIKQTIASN

[4] = molecular target: Serine protease 1 (Homo sapiens) (UniProt P07477); assay: The selectivity ratio for Trypsin and Coagulation factor Xa was determined
[5] = molecular target: T1, Prothrombin; assay: Concentration required to double the prothrombin based clotting time in human plasma; format: functional, cell-free
[6] = molecular target: T1, Prothrombin; assay: Concentration required for twofold increase in thrombin clotting time in human plasma; format: functional, cell-free

Row | Structure (SMILES) | Ki [1] | Ki [2] | Ki [3] | Ratio [4] | Concentration [5] | Concentration [6]
1 | CC(=N)N1CCC(Oc2ccc(NC/C(C)=C/c3cccc(C(=N)N)c3)cc2[N+](=O)[O-])CC1 | 1550 nM | 0.07 nM | 5 nM |  |  | 
2 | CN1CCC(Oc2ccc(N(C/C=C/c3cc(C(=N)N)ccc3O)C(=O)CCC(=O)O)cc2C(F)(F)F)CC1 | > 5000 nM | 0.28 nM | 765 nM |  |  | 
3 | CCOC(=O)CCC(=O)N(C/C=C/c1cc(C(=N)N)ccc1O)c1ccc(OC2CCN(C(C)=N)CC2)c(C(F)(F)F)c1 | 2280 nM | 0.07 nM | 230 nM | 3300 | 0.8 µM | 265 µM
4 | CN1CCC(Oc2ccc(NC/C=C/c3cc(C(=N)N)ccc3O)cc2C(F)(F)F)CC1 | 1820 nM | 0.58 nM | 630 nM |  | 0.98 µM | 156 µM
5 | CC(=O)N1CCC(Oc2ccc(N(C/C=C/c3cc(C(=N)N)ccc3O)C(=O)CCC(=O)O)cc2C(F)(F)F)CC1 | > 5500 nM | 3 nM | 891 nM |  | 3 µM | 173 µM
6 | CC(=N)N1CCC(Oc2ccc(N(C/C=C/c3cc(C(=N)N)ccc3O)C(=O)CCC(=O)O)cc2C(F)(F)F)CC1 | 5140 nM | 0.1 nM | 280 nM | 2800 | 0.54 µM | 174 µM
7 | CCOC(=O)CCC(=O)N(C/C=C/c1cccc(C(=N)N)c1)c1ccc(OC2CCN(C(C)=N)CC2)c(C(F)(F)F)c1 | 1000 nM | 0.55 nM | 76 nM | 140 | 0.87 µM | 32 µM
8 | CS(=O)(=O)N1CCC(Oc2ccc(NC/C=C/c3cc(C(=N)N)ccc3O)cc2C(F)(F)F)CC1 |  | 44 nM | 1250 nM |  |  | 
9 | CC(=N)N1CCC(Oc2ccc(N(C/C=C/c3cccc(C(=N)N)c3)C(=O)CCC(=O)O)cc2C(F)(F)F)CC1 | 5000 nM | 0.28 nM | 110 nM |  | 0.75 µM | 540 µM
10 | CC(=N)N1CCC(Oc2ccc(NCc3ccc4ccc(C(=N)N)cc4c3)cc2[N+](=O)[O-])CC1 | 1960 nM | 0.08 nM | 7 nM |  |  | 
11 | CC(=N)N1CCC(Oc2ccc(NC/C=C/c3cc(C(=N)N)ccc3O)cc2C(F)(F)F)CC1 | 1100 nM | 0.1 nM | 200 nM | 2000 | 1.05 µM | 210 µM
12 | CC(=N)N1CCC(Oc2ccc(NC/C=C/c3cccc(C(=N)N)c3)cc2)CC1 | 5000 nM | 7.5 nM | 80 nM |  |  | 
13 | N=C(N)c1ccc(O)c(/C=C/CN(C(=O)CCC(=O)O)c2ccc(OC3CCN(CC(=O)O)CC3)c(C(F)(F)F)c2)c1 | > 5000 nM | 0.34 nM | 870 nM |  |  | 
14 | CC(=N)N1CCC(Oc2ccc(NC/C=C/c3cccc(C(=N)N)c3)cc2[N+](=O)[O-])CC1 | 2900 nM | 0.27 nM | 27 nM |  |  | 
15 | CC(=N)N1CCC(Oc2ccc(NC/C=C/c3cccc(C(=N)N)c3)cc2C(F)(F)F)CC1 | 2140 nM | 0.88 nM | 50 nM |  | 0.8 µM | 220 µM
16 | CC(=O)N1CCC(Oc2ccc(NC/C=C/c3cc(C(=N)N)ccc3O)cc2C(F)(F)F)CC1 | 480 nM | 18.5 nM | 830 nM |  | 21 µM | 151 µM
17 | CC(=N)N1CCC(Oc2ccc3c(nc(C)n3Cc3ccc4ccc(C(=N)N)cc4c3)c2[N+](=O)[O-])CC1 | 5000 nM | 0.3 nM | 3 nM |  |  | 
18 | CCOC(=O)c1cc(NC/C=C/c2cccc(C(=N)N)c2)ccc1OC1CCN(C(C)=N)CC1 | 480 nM | 6.8 nM | 40 nM |  | 2.6 µM | 15 µM
19 | CC(=N)N1CCC(Oc2ccc(NCc3cccc(-c4cccc(C(=N)N)c4)c3)cc2[N+](=O)[O-])CC1 | 400 nM | 0.17 nM | 42 nM |  |  | 
20 | CC(=N)N1CCC(Oc2ccc(N(C/C=C/c3cccc(C(=N)N)c3)C(=O)c3ccc(C(=O)O)c(C(=O)O)c3)cc2C(F)(F)F)CC1 | 3260 nM | 0.56 nM | 10 nM |  | 0.52 µM | 200 µM
21 | CC(=N)N1CCC(Oc2ccc(NC/C=C/c3cccc(C(=N)N)c3)cc2F)CC1 | 4700 nM | 4.1 nM | 70 nM |  | 0.73 µM | 240 µM
22 | N=C(N)c1ccc(O)c(/C=C/CNc2ccc(OC3CCN(C(N)=O)CC3)c(C(F)(F)F)c2)c1 | 250 nM | 7.3 nM | 520 nM |  |  | 
